# Measurements taken from patent US20120220581A1, “IMIDAZO[1,2-b]PYRIDAZINE DERIVATIVES AND THEIR USE AS PDE10 INHIBITORS” (Janssen-Cilag, S.A., priority 2009, published 2012).
# What was measured:
# [1] = system: apomorphine-induced stereotypy in rats; experiment: Apomorphine-induced stereotypy in rats (APO); format: in vivo; conditions: Rattus norvegicus, n.d.: found not active at threshold dose 2.5 mg/kg or 10 mg/kg (a)
# Experimental: Apomorphine (1.0 mg/kg, i.v.)-induced stereotypy (compulsive sniffing, licking, chewing) was scored every 5 min over the first hour after injection of apomorphine, following a 1 hour interval pre-treatment with the test compound. The score system was: (3) pronounced, (2) moderate, (1) slight, and (0) absent.
# [2] = molecular target: T1, Rat recombinant PDE10A (rPDE10A2) (Rattus norvegicus, UniProt Q9QYJ6); experiment: In vitro assay PDE10A (SPA, 3H-cAMP); format: biochemical; conditions: pIC50 corresponds to the −log IC50 expressed in mol/L; read-out: PDE10A2 pIC50 (converted)
# T1 construct: inferred from the Ni metal chelate purification; made in house; host or cells: Sf9 insect cells (baculovirus)
# T1 sequence (Q9QYJ6 1-794): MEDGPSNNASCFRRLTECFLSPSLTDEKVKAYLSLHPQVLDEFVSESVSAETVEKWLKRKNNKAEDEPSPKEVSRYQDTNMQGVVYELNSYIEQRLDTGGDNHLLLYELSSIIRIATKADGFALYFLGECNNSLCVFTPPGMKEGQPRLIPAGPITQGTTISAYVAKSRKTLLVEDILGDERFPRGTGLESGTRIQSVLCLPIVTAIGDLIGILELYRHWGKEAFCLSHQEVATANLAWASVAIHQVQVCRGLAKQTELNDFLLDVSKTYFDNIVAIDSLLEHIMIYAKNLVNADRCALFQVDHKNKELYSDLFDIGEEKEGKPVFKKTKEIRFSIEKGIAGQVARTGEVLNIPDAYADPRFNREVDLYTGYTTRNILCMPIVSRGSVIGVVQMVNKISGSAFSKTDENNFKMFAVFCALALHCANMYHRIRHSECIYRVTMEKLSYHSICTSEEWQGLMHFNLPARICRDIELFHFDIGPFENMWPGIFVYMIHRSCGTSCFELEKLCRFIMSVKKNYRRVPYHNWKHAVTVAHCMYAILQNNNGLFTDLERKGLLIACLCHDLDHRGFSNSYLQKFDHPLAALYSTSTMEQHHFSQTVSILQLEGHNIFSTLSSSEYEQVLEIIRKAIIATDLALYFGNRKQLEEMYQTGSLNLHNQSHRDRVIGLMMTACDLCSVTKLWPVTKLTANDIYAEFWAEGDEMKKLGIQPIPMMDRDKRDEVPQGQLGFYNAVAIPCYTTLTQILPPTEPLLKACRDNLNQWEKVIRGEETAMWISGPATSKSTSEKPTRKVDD
# Experimental: Rat recombinant PDE10A (rPDE10A2) was expressed in Sf9 cells using a recombinant rPDE10A baculovirus construct. Cells were harvested after 48 h of infection and the rPDE10A protein was purified by metal chelate chromatography on Ni-sepharose 6FF. Tested compounds were dissolved and diluted in 100% DMSO to a concentration 100 fold of the final concentration in the assay. Compound dilutions (0.4 μl) were added in 384 well plates to 20 μl of incubation buffer (50 mM Tris pH 7.8, 8.3 mM MgCl2, 1.7 mM EGTA). 10 μl of rPDE10A enzyme in incubation buffer was added and the reaction was started by addition of 10 μl substrate to a final concentration of 60 nM cAMP and 0.008 μCi ^3H-cAMP. The reaction was incubated for 60 minutes at room temperature. […] After sedimentation of the beads during 30 minutes the radioactivity was measured in a Perkin Elmer Topcount scintillation counter and results were expressed as cpm. For blanc values the enzyme was omitted from the reaction and replaced by incubation buffer. Control values were obtained by addition of a final concentration of 1% DMSO instead of compound. The same assay principle is applied for the measurement of the affinity of the compound for other members of the PDE family with appropriate modifications in incubation buffer, substrate concentration, incubation time and stop solution.
IC50 [2],SMILES,ED50 ([1]; not further tested),"ED50 ([1]; po, * not soluble, tested orally as a suspension)"
50.1 nM,"COC(C)(C)Cc1ccc(-c2c(C3CC3)nc3c(N4CCOCC4)ccnn23)cn1 [compound 45, 2-cyclopropyl-3-[6-(2-methoxy-2-methylpropyl)-3-pyridinyl]-8-(4-morpholinyl)-imidazo[1,2-b]pyridazine]",> 2.5 mg/kg,
91.2 nM,"COC(C)(C)Cc1ccc(-c2c(C)nc3c(N4CCOCC4)cc(C)nn23)cn1 [compound 47, 3-[6-(2-methoxy-2-methylpropyl)-3-pyridinyl]-2,6-dimethyl-8-(4-morpholinyl)-imidazo[1,2-b]pyridazine]",> 2.5 mg/kg,
105 nM,"COC(C)(C)Cc1ccc(-c2cnc3c(N4CCOCC4)ccnn23)cn1 [compound 51, 3-[6-(2-methoxy-2-methylpropyl)-3-pyridinyl]-8-(4-morpholinyl)-imidazo[1,2-b]pyridazine]",> 2.5 mg/kg,
468 nM,"COCCOc1ccc(-c2cnc3c(N4CCOCC4)ccnn23)cn1 [compound 52, 3-[6-(2-methoxyethoxy)-3-pyridinyl]-8-(4-morpholinyl)-imidazo[1,2-b]pyridazine]",> 2.5 mg/kg,
214 nM,"COC(C)(C)Cc1ccc(-c2c(C3CC3)nc3c(N4CCOCC4)cc(C)nn23)cn1 [compound 53, 2-cyclopropyl-3-[6-(2-methoxy-2-methylpropyl)-3-pyridinyl]-6-methyl-8-(4-morpholinyl)-imidazo[1,2-b]pyridazine]",> 2.5 mg/kg,

# Second part, the compound before the results:
SMILES,IC50 [2],ED50 ([1]; not further tested),"ED50 ([1]; po, * not soluble, tested orally as a suspension)"
"c1cc(-c2ccnn3c(-c4ccc(N5CCOCC5)nc4)c(C4CC4)nc23)ccn1 [compound 46, 2-cyclopropyl-3-[6-(4-morpholinyl)-3-pyridinyl]-8-(4-pyridinyl)-imidazo[1,2-b]pyridazine]",17.4 nM,> 2.5 mg/kg,
"COCCOc1ccc(-c2c(C)nc3c(-c4ccncc4)cc(C)nn23)cn1 [compound 49, 3-[6-(2-methoxyethoxy)-3-pyridinyl]-2,6-dimethyl-8-(4-pyridinyl)-imidazo[1,2-b]pyridazine]",209 nM,> 2.5 mg/kg,
"COC(C)(C)Cc1ccc(-c2c(C3CC3)nc3c(-c4ccncc4)cc(C)nn23)cn1 [compound 55, 2-cyclopropyl-3-[6-(2-methoxy-2-methylpropyl)-3-pyridinyl]-6-methyl-8-(4-pyridinyl)-imidazo[1,2-b]pyridazine]",38 nM,> 2.5 mg/kg,
"COCCc1ccc(-c2c(C3CC3)nc3c(-c4ccncc4)cc(C)nn23)cn1 [compound 56, 2-cyclopropyl-3-[6-(2-methoxyethyl)-3-pyridinyl]-6-methyl-8-(4-pyridinyl)-imidazo[1,2-b]pyridazine]",51.3 nM,> 2.5 mg/kg,
"Cc1nc2c(-c3ccncc3)cc(C3CC3)nn2c1-c1ccc(N2CCOCC2)nc1 [compound 58, 6-cyclopropyl-2-methyl-3-[6-(4-morpholinyl)-3-pyridinyl]-8-(4-pyridinyl)-imidazo[1,2-b]pyridazine]",186 nM,> 2.5 mg/kg,
"COCCOc1ccc(-c2c(C)nc3c(-c4ccncc4)cc(C4CC4)nn23)cn1 [compound 59, 6-cyclopropyl-3-[6-(2-methoxyethoxy)-3-pyridinyl]-2-methyl-8-(4-pyridinyl)-imidazo[1,2-b]pyridazine]",234 nM,> 2.5 mg/kg,
"COC(C)(C)Cc1ccc(-c2cnc3c(-c4ccncc4)ccnn23)cn1 [compound 60, 3-[6-(2-methoxy-2-methylpropyl)-3-pyridinyl]-8-(4-pyridinyl)-imidazo[1,2-b]pyridazine]",191 nM,> 2.5 mg/kg,
"COCCc1ccc(-c2c(C)nc3c(N4CCOCC4)cc(C(F)(F)F)nn23)cn1 [compound 64, 3-[6-(2-methoxyethyl)-3-pyridinyl]-2-methyl-8-(4-morpholinyl)-6-(trifluoromethyl)-imidazo[1,2-b]pyridazine]",479 nM,,> 2.5 mg/kg
"COCCOc1ccc(-c2c(C)nc3c(N4CCOCC4)cc(C)nn23)cn1 [compound 69, 3-[6-(2-methoxyethoxy)-3-pyridinyl]-2,6-dimethyl-8-(4-morpholinyl)-imidazo[1,2-b]pyridazine]",324 nM,> 2.5 mg/kg,
